Experimental data reported in ChEMBL document CHEMBL1146262, “Novel thiazolones as HCV NS5B polymerase allosteric inhibitors: Further designs, SAR, and X-ray complex structure” (Bioorg Med Chem Lett, 2007).

test: Inhibition of HCV NS5B polymerase by RdRp-catalyzed elongation assay; design: species or system Hepacivirus hominis

Compound	IC50 [µM]
CCc1ccc(/C=C2\SC(N[C@H](C(=O)O)C3CCCCC3)=NC2=O)o1 (stereo in doubt)	25
CCc1ccc(/C=C2\SC(N[C@H](C(=O)O)c3ccc(O)cc3)=NC2=O)o1 (stereo in doubt)	43
CCc1ccc(/C=C2\SC(NC(Cc3ccccc3)C(=O)O)=NC2=O)o1 (stereo not drawn)	68
CCc1ccc(/C=C2\SC(N[C@H](CC(=O)O)c3ccc(C#N)cc3)=NC2=O)o1 (stereo in doubt)	> 100
CCc1ccc(/C=C2\SC(N[C@H](CC(=O)O)c3ccccc3)=NC2=O)o1 (stereo in doubt)	59
CCc1ccc(/C=C2\SC(N[C@H](CC(=O)O)c3ccc(F)cc3)=NC2=O)o1 (stereo in doubt)	44
CCc1ccc(/C=C2\SC(NC(C(=O)O)C3(C)CCCC3)=NC2=O)o1 (stereo not drawn)	> 100
CCc1ccc(/C=C2\SC(N[C@H](Cc3nn[nH]n3)c3ccccc3)=NC2=O)o1 (stereo in doubt)	24
CCc1ccc(/C=C2\SC(N[C@H](C(=O)O)c3ccccc3)=NC2=O)o1 (stereo in doubt)	55
CCc1ccc(/C=C2\SC(N[C@@H](C(=O)O)c3ccc(F)cc3)=NC2=O)o1 (stereo in doubt) [VALEANT]	50
CCc1ccc(/C=C2\SC(N[C@H](CC(=O)O)c3ccc(C)cc3)=NC2=O)o1 (stereo in doubt)	27
CCc1ccc(/C=C2\SC(N[C@H](CC(=O)O)c3cccnc3)=NC2=O)o1 (stereo in doubt)	> 100

Continued, values first:

IC50 [µM]	Compound
14	CCc1ccc(/C=C2\SC(NC(C(=O)O)c3ccc4ccccc4c3)=NC2=O)o1 (stereo not drawn)
13	CCc1ccc(/C=C2\SC(N[C@@H](CC(=O)O)c3ccc(F)cc3)=NC2=O)o1 (stereo in doubt)
3	CCc1ccc(/C=C2\SC(N[C@H](C(=O)O)c3ccc(F)cc3)=NC2=O)o1 (stereo in doubt)
19	CCc1ccc(/C=C2\SC(NC(c3ccccc3)c3nn[nH]n3)=NC2=O)o1 (stereo not drawn)
24	CCc1ccc(/C=C2\SC(NC(C(=O)O)c3ccc(F)c(Cl)c3)=NC2=O)o1 (stereo not drawn)
14	CCc1ccc(/C=C2\SC(NC(c3ccc(C)cc3)c3nn[nH]n3)=NC2=O)o1 (stereo not drawn)
12	CCc1ccc(/C=C2\SC(NC(C(=O)O)c3ccc(C)cc3C)=NC2=O)o1 (stereo not drawn)
11	CCc1ccc(/C=C2\SC(NC(C(=O)O)c3ccc(C)cc3)=NC2=O)o1 (stereo not drawn)
5.5	CCc1ccc(/C=C2\SC(NC(C(=O)NO)c3ccc(Cl)cc3Cl)=NC2=O)o1 (stereo not drawn)
7.6	CCc1ccc(/C=C2\SC(NC(C(=O)O)c3ccc(Cl)cc3Cl)=NC2=O)o1 (stereo not drawn)
9	CCc1ccc(/C=C2\SC(N[C@@H](CC(=O)O)c3ccc(Cl)cc3Cl)=NC2=O)o1 (stereo in doubt)
8.5	CCc1ccc(/C=C2\SC(N[C@H](CC(=O)O)c3ccc(Cl)cc3Cl)=NC2=O)o1 (stereo in doubt)
6	CCc1ccc(/C=C2\SC(NC(C(=O)O)c3ccc(Br)cc3)=NC2=O)o1 (stereo not drawn)
21	CCc1ccc(/C=C2\SC(NC(C(=O)O)c3ccc(C(F)(F)F)cc3)=NC2=O)o1 (stereo not drawn)
16	CCc1ccc(/C=C2\SC(N[C@H](C(N)=O)c3ccc(F)cc3)=NC2=O)o1 (stereo in doubt)
16.5	CCc1ccc(/C=C2\SC(N[C@H](CC(=O)O)c3ccc(Br)cc3)=NC2=O)o1 (stereo in doubt)
